# Legend:
# Format in all cases: cell-based
# [1] = tested on: GT2a-3a-S52 replicon; assay: Stable replicon assay, comparison to daclatasvir, GT2a-3a-S52; details: Hepatitis C virus
# Excerpt: The plasmid pSG-hRlucNeo-JFH1 was generated from pSG-Neo-JFH1 (Kato et al. 2003, Gastroentrology 125:1808-1817). A fragment containing the JFH-1 5′ NTR-hRluc-Neo gene and two unique restriction sites (AgeI and PmeI) was synthesized (Integrated DNA Technologies, Coralville, Iowa). The resulting plasmid was digested with AgeI and PmeI and the excised fragment (5′NTR-hRluc-Neo) was ligated into pSG-Neo-JFH1 digested with the same enzymes to generate pSG-hRlucNeo-JFH1. To allow expression of heterologous NS5A sequences, an NS5A shuttle vector was generated from pSG-Neo-JFH1, in which the entire coding sequence of NS5A plus the first eight codons of NS5B were replaced with an AfeI restriction site. This was done by Infusion cloning (Clontech, Mountain View, Calif.) from two PCR products that were generated using pSG-Neo-JFH1 as a template and the following primer pairs: […]
# Stable HCV replicon cell lines were grown in complete media (Dulbecco's modified Eagle medium [DMEM], 2 mM L-glutamine, 0.1 mM essential amino acids, 1 mM sodium pyruvate, 10% fetal bovine serum) with the addition 500 μg/ml […] (G418). […] For stable and transient replicon assays, luciferase activity of compound-treated cells was measured relative to DMSO-treated cells after 72 h incubation using RENILLA-GLO™ Luciferase Assay (Promega). […]
# [2] = tested on: HCV genotype 1a replicon, NS5A Y93H; assay: Transient replication assay, GT1a NS5A Y93H; details: Hepatitis C virus
# [3] = tested on: HCV genotype 1a replicon, NS5A Y93C; assay: Transient replication assay, GT1a NS5A Y93C; details: Hepatitis C virus
# [4] = tested on: HCV genotype 1a replicon, NS5A M28V Y93H; assay: Transient replication assay, GT1a NS5A M28V Y93H; details: Hepatitis C virus
# [5] = tested on: HCV genotype 1a replicon, NS5A M28V Y93C; assay: Transient replication assay, GT1a NS5A M28V Y93C; details: Hepatitis C virus
# [6] = tested on: HCV genotype 1a replicon, NS5A M28T; assay: Transient replication assay, GT1a NS5A M28T; details: Hepatitis C virus
# [7] = tested on: HCV genotype 1a replicon, NS5A K24G; assay: Transient replication assay, GT1a NS5A K24G; details: Hepatitis C virus
# [8] = tested on: HCV genotype 1a replicon, NS5A Y93N; assay: Transient replication assay, GT1a NS5A Y93N; details: Hepatitis C virus
# [9] = tested on: HCV genotype 1a replicon, NS5A K24R; assay: Transient replication assay, GT1a NS5A K24R; details: Hepatitis C virus
# [10] = tested on: GT1b-Con1 replicon; assay: Stable replicon assay, comparison to daclatasvir, GT1b-Con1; details: Hepatitis C virus; Replicon GT1b-Con1, NS5A genotype 1b
# Method: Stable HCV replicon cell lines were grown in complete media (Dulbecco's modified Eagle medium [DMEM], 2 mM L-glutamine, 0.1 mM essential amino acids, 1 mM sodium pyruvate, 10% fetal bovine serum) with the addition 500 μg/ml […] (G418). Huh7-lunet cells were maintained in the same medium without the addition of G418. Cells were routinely passaged at a dilution of 1:5 two times per week. For stable replicon assays (GT1a-H77, GT1b-Con1, GT2a-JFH, GT2a-J6, GT2a-2b-MD2b, GT2a-2b-J8, GT2a-3a-S52, GT3a-552, GT4a-ED43, GT2a-5a-SA13, GT2a-6a-EUKH2, GT2a-6a-HK6a, and GT2a-7a-QC69), an 8-point 3-fold or half-log dilution series of compound was transferred into three replica 96-well plates containing 1×10^4 cells per well in phenol red-free complete media without G418. For the transient replication assay, Huh7-lunet cells in ice-cold phosphate buffered saline (PBS) were electroporated (Bio-Rad Gene pulser: 950 uF, 270V) with 10 μg purified in vitro transcribed HCV replicon RNA, followed by resuspension in phenol red-free complete media without G418 and plating (1×10^4 cells in 200 μL media/well) into three replica 96-well plates prior to compound addition (1 μl compound per well). For stable and transient replicon assays, luciferase activity of compound-treated cells was measured relative to DMSO-treated cells after 72 h incubation using RENILLA-GLO™ Luciferase Assay (Promega). […]
compound,measurement,setting,value
COC(=O)N[C@H](C(=O)N1C[C@]2(CCCOC2)C[C@H]1c1ncc(-c2ccc(-c3ccc4c(ccc5nc([C@@H]6C[C@@H]7CCC[C@@H]7N6C(=O)[C@@H](NC(=O)OC)C(C)C)[nH]c54)c3)cc2)[nH]1)C(C)C [Compound 16],EC50,[1],0.54 nM
same,EC50,[2],10 nM
same,EC50,[3],0.22 nM
same,EC50,[4],15 nM
same,EC50,[5],1 nM
same,EC50,[6],0.049 nM
same,EC50,[7],0.0021 nM
same,EC50,[8],19 nM
same,EC50,[9],0.0012 nM
same,EC50,[10],0.008 nM
"COC(=O)N[C@H](C(=O)N1CCC[C@H]1c1nc(-c2ccc(-c3ccc(-c4c[nH]c([C@@H]5CCCN5C(=O)[C@@H](NC(=O)OC)C(C)C)n4)cc3)cc2)c[nH]1)C(C)C [Daclatasvir, reference compound]",EC50,[1],0.39 nM
same,EC50,[2],65 nM
same,EC50,[3],3.2 nM
same,EC50,[4],17.5 nM
same,EC50,[5],3.5 nM
same,EC50,[6],3.4 nM
same,EC50,[7],0.02 nM
same,EC50,[8],119 nM
same,EC50,[9],0.011 nM
same,EC50,[10],0.02 nM
